The values below come from ChEMBL document CHEMBL1201862, “PubChem BioAssay data set” (2004).

Molecules are shown by their SMILES. Calls of active or inactive are those of the source.

In one test the target is Phospholipase A2 (Homo sapiens, UniProt P04054). Type of test: functional.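 Also: confirmatory dose-response counterscreen on phospholipase A2, testing hits that came from an ultra-high-throughput screen for ATG4B inhibitors.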
The target in test [1] is T1, 1-phosphatidylinositol 4,5-bisphosphate phosphodiesterase gamma-1 (Homo sapiens, UniProt P19174).
T1 sequence (P19174 whole entry): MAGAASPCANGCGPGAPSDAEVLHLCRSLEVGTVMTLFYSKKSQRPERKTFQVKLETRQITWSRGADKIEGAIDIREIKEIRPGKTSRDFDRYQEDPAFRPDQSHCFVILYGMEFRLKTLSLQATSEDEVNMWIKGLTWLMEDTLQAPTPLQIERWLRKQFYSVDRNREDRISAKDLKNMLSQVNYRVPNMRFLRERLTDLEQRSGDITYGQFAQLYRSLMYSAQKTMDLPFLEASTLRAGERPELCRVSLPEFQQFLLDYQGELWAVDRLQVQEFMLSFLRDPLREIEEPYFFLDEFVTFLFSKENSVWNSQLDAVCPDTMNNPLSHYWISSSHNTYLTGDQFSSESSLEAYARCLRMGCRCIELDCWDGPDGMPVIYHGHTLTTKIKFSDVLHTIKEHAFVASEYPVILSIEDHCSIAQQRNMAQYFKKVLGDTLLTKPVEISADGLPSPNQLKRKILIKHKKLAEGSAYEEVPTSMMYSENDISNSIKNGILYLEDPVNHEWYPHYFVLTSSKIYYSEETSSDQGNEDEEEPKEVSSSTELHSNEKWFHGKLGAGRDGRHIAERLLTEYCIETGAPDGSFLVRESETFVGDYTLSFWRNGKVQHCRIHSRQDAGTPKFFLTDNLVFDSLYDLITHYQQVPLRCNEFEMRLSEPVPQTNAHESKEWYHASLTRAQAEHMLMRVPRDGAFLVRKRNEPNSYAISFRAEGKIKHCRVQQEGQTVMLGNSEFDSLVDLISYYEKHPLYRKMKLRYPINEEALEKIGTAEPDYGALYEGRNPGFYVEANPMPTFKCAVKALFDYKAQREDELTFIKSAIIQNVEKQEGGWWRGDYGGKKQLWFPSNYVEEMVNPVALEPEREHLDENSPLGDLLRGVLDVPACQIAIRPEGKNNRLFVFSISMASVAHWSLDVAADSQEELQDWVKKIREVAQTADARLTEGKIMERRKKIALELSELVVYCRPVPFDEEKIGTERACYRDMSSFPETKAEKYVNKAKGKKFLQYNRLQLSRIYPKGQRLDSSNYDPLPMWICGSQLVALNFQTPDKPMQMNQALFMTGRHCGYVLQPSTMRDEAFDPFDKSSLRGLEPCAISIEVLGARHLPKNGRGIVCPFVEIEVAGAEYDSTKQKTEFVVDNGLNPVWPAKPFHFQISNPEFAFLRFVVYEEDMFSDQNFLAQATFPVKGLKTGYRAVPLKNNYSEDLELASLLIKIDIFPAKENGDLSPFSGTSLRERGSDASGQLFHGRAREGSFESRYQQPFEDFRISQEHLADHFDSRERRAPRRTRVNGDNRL
Nature of the test: Counterscreen for inhibitors of phospholipase C isozymes (PLC-B3): Fluorescence-based biochemical high throughput dose response assay to identify inhibitors of phospholipase C isozymes (PLC-gamma1).

For test [2], the target named is Sphingosine 1-phosphate receptor 4 (Homo sapiens, UniProt O95977). Nature of the test: Fluorescence dose response cell-based high throughput screening assay for antagonists of the Sphingosine 1-Phosphate Receptor 4 (S1P4). [Related pubchem assays: 1524 (Confirmation in triplicates.), 1510 (Primary screen.)]. It counts as functional.
Sphingosine 1-phosphate receptor 4, sequence (O95977 whole entry): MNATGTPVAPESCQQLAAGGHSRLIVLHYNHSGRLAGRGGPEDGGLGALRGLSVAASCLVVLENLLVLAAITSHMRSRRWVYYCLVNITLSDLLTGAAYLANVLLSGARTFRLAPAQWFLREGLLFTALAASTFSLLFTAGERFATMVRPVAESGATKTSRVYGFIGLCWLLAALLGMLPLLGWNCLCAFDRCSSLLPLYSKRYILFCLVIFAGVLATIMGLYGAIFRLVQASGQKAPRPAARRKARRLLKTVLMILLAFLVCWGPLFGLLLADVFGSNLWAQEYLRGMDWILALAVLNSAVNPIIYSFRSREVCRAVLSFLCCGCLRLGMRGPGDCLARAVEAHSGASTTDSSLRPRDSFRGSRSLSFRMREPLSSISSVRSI
The target in test [3] is Sphingosine 1-phosphate receptor 1 (Homo sapiens, UniProt P21453). Type of test: functional.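 Also: Tango beta-arrestin reporter U2OS cells stimulated with S1P near its EC80; inhibitor potency meaning antagonism of receptor activation by the natural agonist.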
Sphingosine 1-phosphate receptor 1, sequence (P21453 whole entry): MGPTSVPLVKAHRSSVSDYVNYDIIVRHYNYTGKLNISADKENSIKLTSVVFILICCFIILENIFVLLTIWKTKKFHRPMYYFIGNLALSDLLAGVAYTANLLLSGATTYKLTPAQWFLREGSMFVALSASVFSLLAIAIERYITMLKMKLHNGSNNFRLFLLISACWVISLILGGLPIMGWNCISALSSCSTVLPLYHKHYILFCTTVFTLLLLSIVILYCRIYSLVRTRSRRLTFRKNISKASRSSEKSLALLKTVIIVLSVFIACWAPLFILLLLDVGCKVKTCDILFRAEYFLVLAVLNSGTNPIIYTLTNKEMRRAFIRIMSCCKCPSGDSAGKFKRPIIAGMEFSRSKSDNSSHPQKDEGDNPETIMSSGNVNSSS
Test [4] is described as follows: control 3'UTR Renilla luciferase suppression, dose response, counter-screen for Shn3 inhibitor project, cell-based, Clone20-Shn3RL, cherry-picked (AID 624133). It counts as functional.
The target of test [5] is T2, Heat shock factor protein 1 (Mus musculus, UniProt P38532).
T2 sequence (P38532 whole entry): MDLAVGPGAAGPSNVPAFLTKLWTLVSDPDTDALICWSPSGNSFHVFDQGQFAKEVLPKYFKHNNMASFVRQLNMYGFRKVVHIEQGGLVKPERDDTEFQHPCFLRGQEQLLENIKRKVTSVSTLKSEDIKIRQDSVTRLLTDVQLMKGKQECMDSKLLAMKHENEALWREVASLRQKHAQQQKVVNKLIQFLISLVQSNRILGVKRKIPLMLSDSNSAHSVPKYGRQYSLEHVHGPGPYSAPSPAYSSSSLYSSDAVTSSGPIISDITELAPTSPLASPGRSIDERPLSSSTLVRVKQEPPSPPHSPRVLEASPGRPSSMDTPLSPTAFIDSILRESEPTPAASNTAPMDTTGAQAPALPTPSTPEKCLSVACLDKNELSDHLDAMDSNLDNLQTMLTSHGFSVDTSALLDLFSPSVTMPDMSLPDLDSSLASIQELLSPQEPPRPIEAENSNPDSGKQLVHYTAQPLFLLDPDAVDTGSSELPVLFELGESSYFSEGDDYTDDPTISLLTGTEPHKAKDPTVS
Kind of test: inhibition of MG132-induced HSE-luciferase signal, confirmation, cell-based, NIH3T3, luminescence, dose retest (AID 2382).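 Also: NIH3T3 fibroblasts with HSF1-driven luciferase reporter stressed by proteasome inhibitor MG132; luminescence from HSF1-driven luciferase expression after 8 hours of MG132 stress.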 Type of test: functional.

The subject of another test is Vero. Kind of test: Vero cell cytotoxicity, cytotoxicity control for flavivirus capping enzyme inhibitors (AID 588742). Type of test: functional. Particulars: Chlorocebus sabaeus.
In test [6] the target is T3, Type-1 angiotensin II receptor (Homo sapiens, UniProt P30556).
T3 sequence (P30556 whole entry): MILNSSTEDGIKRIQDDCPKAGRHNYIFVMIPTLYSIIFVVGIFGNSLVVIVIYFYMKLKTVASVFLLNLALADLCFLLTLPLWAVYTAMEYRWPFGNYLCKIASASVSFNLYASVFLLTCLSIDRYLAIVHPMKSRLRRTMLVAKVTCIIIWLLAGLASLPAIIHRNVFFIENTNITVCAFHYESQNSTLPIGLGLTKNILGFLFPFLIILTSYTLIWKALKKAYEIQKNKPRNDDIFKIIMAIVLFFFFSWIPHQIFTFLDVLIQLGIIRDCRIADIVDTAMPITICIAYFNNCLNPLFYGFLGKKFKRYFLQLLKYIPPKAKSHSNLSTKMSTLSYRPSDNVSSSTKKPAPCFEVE
Nature of the test: AT1 receptor antagonists, dose response, selectivity assay for APJ receptor antagonist project, cell-based, uHTS hits (AID 463214).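 Also: antagonist potency against angiotensin II stimulated AT1 response.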 Type of test: functional.

The target in a further test is T4, Caspase-3 (Homo sapiens, UniProt P42574).
T4 sequence (P42574 whole entry): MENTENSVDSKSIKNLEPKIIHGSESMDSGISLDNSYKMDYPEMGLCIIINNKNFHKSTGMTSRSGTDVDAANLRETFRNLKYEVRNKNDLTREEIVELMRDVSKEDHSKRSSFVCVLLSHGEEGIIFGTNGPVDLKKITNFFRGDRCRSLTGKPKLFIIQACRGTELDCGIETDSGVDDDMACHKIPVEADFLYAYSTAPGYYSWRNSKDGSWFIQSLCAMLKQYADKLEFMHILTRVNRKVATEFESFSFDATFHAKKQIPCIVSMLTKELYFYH
Nature of the test: SAR Analysis of small molecule inhibitors of Sentrin-specific proteases (SENPs) using a Caspase-3 Selectivity assay. [Related pubchem assays (depositor defined):AID2540, AID2599, AID434973, AID489001]. Type of test: functional.

Test [7] can be described thus: growth suppression of beta-catenin-knockout colon cells, dose response, cell-based, HCT116, human colon tumor (AID 1045).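 Also: HCT116 colon tumor cells with beta catenin knocked out; cells exposed to compound for 60 hours.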 It counts as functional.

Phospholipase A2, sequence (P04054 whole entry): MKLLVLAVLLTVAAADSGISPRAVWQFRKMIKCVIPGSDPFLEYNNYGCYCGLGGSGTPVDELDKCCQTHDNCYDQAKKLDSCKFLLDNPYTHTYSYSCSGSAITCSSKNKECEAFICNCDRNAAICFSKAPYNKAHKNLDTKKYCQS

Take `Cc1ccccc1NC1=C/C(=N\S(=O)(=O)c2ccc(C(=O)O)cc2)c2ccccc2C1=O`: the IC50 (as a rule, the midpoint of a concentration-inhibition curve) on Phospholipase A2 was 15.4 µM (active); in test [1], 90.1 µM (inactive).
Take `COC(=O)C[C@]1(C(=O)OC)CN(C#N)N(c2ccc(Cl)cc2)C12c1ccccc1-c1ccccc12`: the IC50 is 341 nM (active) in [2] and 5.39 µM (active) in test [3]. The AC50 (in general, the concentration giving half of the maximal activity seen) in test [4] is 1.67 µM (active). The EC50 (usually the midpoint of the concentration-response curve) in test [5] is 2.74 µM (active).
Regarding `CCCCn1c(NC(=O)c2ccco2)c(C(=O)OCC)c2nc3ccccc3nc21`, the CC50 – broadly, the concentration that lowers cell viability or growth by half – in the test on Vero was > 40 µM (active). Also, the IC50 in test [6] was 10.4 µM (active).
For the molecule `O=C(Nc1ccc(C#Cc2ccccc2)cc1)C1CC1`, the IC50 at Caspase-3 was 19.7 µM (active).
`Cc1ccc(NC2=C/C(=N/S(=O)(=O)c3cccs3)c3ccccc3C2=O)cc1`: in test [7], the EC50 is 2.82 µM (active).
